According to patent US11998014B1, “O-{1-[(3,5-dinitrobenzoyl)amino]propan-2-yl} (4-chlorophenyl)carbamothioate as an eco-friendly insecticidal agent against Spodoptera littoralis (boisd.)” (KING FAISAL UNIVERSITY, priority 2024, dated 2024):
In brackets after ≈: the same amount, converted by molar mass. Like-named read-outs stand apart in the source and are kept apart here.

Legend:
[1] = tested on: aquatic insects; details: cited from earlier work
[2] = tested on: Spodoptera littoralis; assay: Insecticidal leaf dip bioassay on S. littoralis larvae (castor bean leaf discs); format: in vivo, Spodoptera littoralis (cotton leafworm, laboratory strain); details: for Toxicity index %: 72 hours, fenoxycarb's LC50 / compound's LC50 * 100; for LC50: Spodoptera littoralis, in Gossypium hirsutum, foliar, 72 h
Method: Five concentrations (200, 100, 50, 25, 12.5 ppm) were designed for this synthetic compound and the reference fenoxycarb's compound as the dynamic ingredients based on ppm via diluting the commercial formulation.
In this experiment, the synthetic compound was tested for its insecticidal bioactivity using the industry-standard leaf dip bioassay techniques. Preparation of the compound stocks to create […], 0.1 g of compounds 2 were dissolved in five mL of Dimethyl formamide & combined with 5 mL of distilled water. Until usage, the stocks were kept in a refrigerator. The target substance test results were noted & the concentrations needed to destroy 50% (LC50) of S. littoralis larvae were calculated. The target compound was employed in five different concentrations, and 0.1% Tween 80 was employed as a surfactant. Castor bean leaf discs (nine centimeters in diameter) were dipped in the concentration under test for ten seconds, then fed to 2th and 4th larvae, which were roughly the same size and housed in glass jars (five pound). Each action carried out 3 times with ten larvae each. The mortality equalized via Abbott's formula. Calculations of mortality setback line were measurably rummage via probity analysis. Harmfulness index was strongminded via sun equations. The mortality results of larval insect were estimated through employing probit analysis through a statistics (LDP-line) equation which estimate the LC50 values with 95% fiducially limits of lower, upper confidence limit and slope.

Compound | LC50 [1] [µg/mL] | Toxicity index % ([2]; 2nd instar larvae) [%] | LC50 (mg/L) at 95% ([2]; 2nd instar larvae, after 72 hours of treatment, leaf dip) | Toxicity index % ([2]; 4th instar larvae) [%] | LC50 ([2]; 2nd instar larvae, after 72 hours of treatment, leaf dip, read-out: LC50 (mg/L) at 95%) [mg/L] | LC50 ([2]; 4th instar larvae, after 72 hours of treatment, leaf dip, read-out: LC50 (mg/L) at 95%) [mg/L] | LC50 ([2]; read-out: LC50 (mg/L) at 95%, 2nd instar larvae, after 72 hours of treatment, leaf dip) [mg/L] | LC50 ([2]; read-out: LC50 (mg/L) at 95%, 4th instar larvae, after 72 hours of treatment, leaf dip) [mg/L]
CCc1ccc(C(=O)NN(C(=O)c2cc(C)cc(C)c2)C(C)(C)C)cc1 [tebufenozide] | 100 to 1000 | – | – | – | – | – | – | –
CC(CNC(=O)c1cc([N+](=O)[O-])cc([N+](=O)[O-])c1)OC(=S)Nc1ccc(Cl)cc1 (stereo not shown) [Compound 2, O-{1-[(3,5-dinitrobenzoyl)amino]propan-2-yl} (4-chlorophenyl)carbamothioate] | – | 47.52 | about 12.505 mg/L | 88.23 | 12.5 (≈ 28.5 µM) | ~67.9 (≈ 155 µM) | – | –
CCOC(=O)NCCOc1ccc(Oc2ccccc2)cc1 [fenoxycarb] | – | 100 | – | 100 | – | – | 5.94 (≈ 19.7 µM) | 59.9 (≈ 199 µM)
